We go through 18 compounds from patent publication US10807948B2, “Aromatic compounds and uses thereof” (PELOTON THERAPEUTICS, INC., priority 2015, dated 2020).

Entries after “also recorded” stand apart in the source; their conditions may differ.

Experiment [1] addresses T1, HIF-2α HIS TAG-PASB Domain (Homo sapiens, UniProt Q99814).
T1 construct: 100 nM HIF-2α HIS TAG-PASB Domain
In words: HIF-2α Scintillation Proximity Assay (SPA). It is filed as binding. Particulars: displacement of tritiated probe from HIF-2α PASB domain. The method, then: The total assay volume was about 100 μL in the following configuration: 2 μL compound in 100% DMSO, 88 μL buffer with protein and probe and 10 μL of SPA beads. […] The percent inhibition was determined and IC50 values were calculated using the Dotmatics system based on the following equation: % inhibition=[(high control−sample)/(high control−low control)]×100.
(In general: SPA uses beads or plates that emit light when radiolabelled molecules are held near them.)

Experiment [2] deals with 786-O-Hif-Luc cells. In words: Luciferase Assay. The settings on record: about 24 hours. In kind it is cell-based. The method, then: 786-O-Hif-Luc single clone cells were obtained by infecting 786-O cells (ATCC® CRL-1932™) with commercial lentivirus that delivers a luciferase gene driven by multiple HIF responsive elements (Cignal Lenti HIF Reporter (luc): CLS-007L, Qiagen) at Multiplicity of Infection (MOI) of 25 for 24 hours. […] A pool of infected cells were then selected against 2 μg/mL of puromycin (P8833, Sigma) for 10 days followed by limited dilution to select single clones. […] For the luciferase assay, about 7500 786-O-Hif-Luc cells in 90 μL growth medium were seeded into each well of a 96-well white opaque plate (08-771-26, Fisher scientific) a day before treatment with the layout presented in FIG. 5.
Each concentration was tested in triplicate. After about 24 hours, luciferase activity was determined using ONE-Glo Luciferase Assay Reagent (E6110, Promega) following the manufacturer's recommended procedure. EC50 were calculated using Dotmatics software.

For experiment [3], the system named is renal cell carcinoma 786-O xenograft. Put plainly: In vivo PK/PD study: human VEGFA in plasma by ELISA. The arrangement: species or system SCID/Biege mice. Particulars: 3 mg/kg oral gavage, six times at 12 hour intervals. The procedure: (§1) About 5×10^6 renal cell carcinoma 786-O tumor cells (ATCC® CRL-1932™, VHL and HIF-1α null cell line) in PBS and Matrigel (1:1 in volume) were injected subcutaneously at the right flanks of SCID/Biege mice at 6-7 weeks of age for xenograft development. When the xenografts reached about 400 mm^3 in size, the tumor bearing mice were randomly divided into 2 groups (n=3). Plasma was collected prior to treatment by retro-orbital bleeding. The animals were treated with either vehicle or Compound 95 at 3 mg/kg by oral gavage (six times at 12 hour intervals). All animals were sacrificed at 12 hours post last dose. Tumor, kidney, and plasma samples were collected from each animal. Total RNA was extracted from the tumors and kidneys. The mRNA levels of several genes were determined by qRT-PCR (FIG. 1).
The level of human VEGFA was determined by ELISA assay.

Experiment [4] shares this test system. In words: In vivo efficacy study, 786-O xenograft. The arrangement: species or system SCID/Biege mouse. Particulars: for Tumor size (mm^3) Mean ± SEM: after 28 days of dosing.
Experiment [5] shares this test system. In words: In vivo PK/PD study: mRNA levels of genes in tumor by qRT-PCR. The arrangement: species or system SCID/Biege mice. Particulars: 3 mg/kg oral gavage, six times at 12 hour intervals; 12 hours post last dose. The method, then:
as §1
Total RNA was extracted from the tumors, and the expressions of putative HIF-1α and HIF-2α regulated genes were determined by qRT-PCR.
Background: Real-time PCR tracks product formation cycle by cycle.

The test system of experiment [6] is 786-O cells. Put plainly: VEGF ELISA Assay. It is filed as cell-based. Particulars: Homo sapiens, 786-0, VEGF concentration in cell culture medium. The procedure: About 7500 786-0 cells in 180 μL of growth medium were seeded into each well of a 96-well, white, clear bottom plate (07-200-566, Fisher Scientific) on day one in the layout presented in FIG. 3.
Each concentration was plated in duplicate. About 20 hours later, medium was removed by suction and each well was supplied with 180 μL of growth medium. About 20 μL freshly-made 10× compound stocks were added to each well. […] The EC50 was calculated by GraphPad Prism using the dose-response-inhibition (four parameter) equation. The cell-seeded plate was then subjected to CellTiter-Glo luminescence cell viability assay (Promega) by adding 50 μL of Celltiter Glo reagent into each well and shaking the plate for 8 minutes at 550 rpm (Thermomixer R, Eppendorf) then the luminescence signal immediately read in a plate reader (3 second delay, 0.5 second/well integration time, Synergy 2 multi Detection Microplate reader).
A general note: ELISA stands for enzyme-linked immunosorbent assay.

T1 sequence (Q99814 239-348): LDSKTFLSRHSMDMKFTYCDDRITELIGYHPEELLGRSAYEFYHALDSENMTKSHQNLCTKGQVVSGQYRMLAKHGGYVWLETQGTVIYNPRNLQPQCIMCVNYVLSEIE

In experiment [1], `N#CC1(COc2ccc(S(=O)(=O)C(F)(F)F)c3c2CC(F)(F)C3O)CC1` (stereo not drawn) [Compound 142] came in with an IC50 of under 0.05 µM. Compound `FC(F)COc1ccc(C(F)(F)F)c2c1CC(F)(F)C2F` (stereo not drawn) [Compound 214] came in with an IC50 in experiment [1] of over 1 µM. On to `CC1CC(Oc2ccc(S(=O)(=O)C(F)(F)F)c3c2CC(F)(F)C3O)CCO1` (stereo not drawn) [Compound 148], for which the EC50 in experiment [2] was under 0.05 µM. In experiment [2], `CS(=O)(=O)c1ccc(O[C@H]2C[C@H](F)C2)c2c1[C@H](O)C(F)(F)[C@@H]2F` [Compound 261] displayed an EC50 of under 0.05 µM. Regarding `OC1c2c(OCC(F)F)ccc(C(F)(F)F)c2C(F)C1(F)F` (stereo not drawn) [Compound 215], the IC50 in experiment [1] is over 1 µM.

For the compound `COC[C@@H](C)Oc1ccc(S(=O)(=O)C(F)(F)F)c2c1CC(F)(F)[C@H]2O` [Compound 184], the EC50 in experiment [2] was under 0.05 µM.

`CO[C@H]1C[C@H](Oc2ccc(S(=O)(=O)C(F)(F)F)c3c2CC(F)(F)[C@H]3O)C1` [Compound 239] showed an IC50 in experiment [1] of under 0.05 µM. Compound `CS(=O)(=O)c1ccc(OC2CCC2)c2c1[C@H](O)C(F)(F)[C@@H]2F` [Compound 281] displayed an EC50 in experiment [2] of 0.05 to 0.249 µM. For `N#Cc1cncc(-c2ccc(S(=O)(=O)C(F)(F)F)c3c2CC(F)(F)C3O)c1` (stereo not drawn) [Compound 91], the EC50 in experiment [2] is over 1 µM. The IC50 in experiment [1] was over 1 µM.

As to `CS(=O)(=O)c1ccc(OC2CC(F)(F)C2)c2c1[C@H](O)C(F)(F)[C@@H]2F` [Compound 95, (1S,3R)-4-(3,3-difluorocyclobutoxy)-2,2,3-trifluoro-7-(methylsulfonyl)-2,3-dihydro-1H-inden-1-ol], the “human VEGFA plasma level” value in experiment [3] is reported as “significant reduction; also recorded: reduced”. The “Tumor size (mm^3) Mean ± SEM” value in experiment [4] (1 mg/kg QD) was found to be 525.72 mm^3. The “Tumor size (mm^3) Mean ± SEM” value in experiment [4] (3 mg/kg QD) amounted to 154.52 mm^3. The “Tumor size (mm^3) Mean ± SEM” value in experiment [4] (10 mg/kg QD) is listed as 89.45 mm^3. Further, the “effect on tumor growth / tumor sizes” value in experiment [4] (1, 3 and 10 mg/kg QD for 28 days, single agent) was “statistically significant reduction of tumor sizes for all treatment groups; also recorded: tumor growth inhibition and regression”. In experiment [5], the “CCND1 mRNA level in tumor” value is “significant reduction; also recorded: reduced”, the “GLUT1 mRNA level in tumor” value is listed as “significant reduction; also recorded: reduced”, the “PAI-1 mRNA level in tumor” value is “significant reduction; also recorded: reduced” and the “PGK1 mRNA level in tumor (HIF-1α specific target gene)” value was “no significant change; also recorded: no significant effect”. In experiment [5], the “VEGFA mRNA level in tumor” value is listed as “significant reduction; also recorded: reduced”. In the case of `O=S(=O)(CF)c1ccc(OC2CC(F)(F)C2)c2c1[C@H](O)C(F)(F)[C@@H]2F` [Compound 97, (1S,3R)-4-(3,3-difluorocyclobutoxy)-2,2,3-trifluoro-7-((fluoromethyl)sulfonyl)-2,3-dihydro-1H-inden-1-ol], in experiment [6], the EC50 was under 0.05 µM.

`O[C@H]1c2c(C(F)(F)F)ccc(OC3CC(F)(F)C3)c2CC1(F)F` [Compound 109]: the EC50 in experiment [6] and in experiment [2] was under 0.05 µM throughout.

`CCOc1ccc(S(=O)(=O)C(F)(F)F)c2c1CC(F)(F)C2O` (stereo not drawn) [Compound 113]: in experiment [1], the IC50 was in the range of 0.05 to 0.249 µM.

In experiment [1], `O=S(=O)(CF)c1ccc(OC2CC(F)(F)C2)c2c1[C@H](O)[C@H](F)[C@@H]2F` (racemic) [Compound 99, (racemic)-4-(3,3-difluorocyclobutoxy)-2,3-difluoro-7-((fluoromethyl)sulfonyl)-2,3-dihydro-1H-inden-1-ol] gave an IC50 of under 0.05 µM. In experiment [2], `OC1c2c(C(F)(F)F)ccc(OCC(F)F)c2CC1F` (stereo not drawn) [Compound 221] had an EC50 of 0.05 to 0.249 µM. Also, in experiment [1], the IC50 lay in the range of 0.05 to 0.249 µM.

Compound `O=S(=O)(c1ccc(OCC2(F)COC2)c2c1[C@H](O)C(F)(F)C2)C(F)(F)F` [Compound 94, (S)-2,2-difluoro-4-((3-fluorooxetan-3-yl)methoxy)-7-((trifluoromethyl)sulfonyl)-2,3-dihydro-1H-inden-1-ol] had an EC50 in experiment [2] of under 0.05 µM. Compound `CS(=O)(=O)c1ccc(OC2CC(F)(F)C2)c2c1[C@H](O)[C@H](F)[C@@H]2F` (racemic) [Compound 98, (racemic)-4-(3,3-difluorocyclobutoxy)-2,3-difluoro-7-(methylsulfonyl)-2,3-dihydro-1H-inden-1-ol] showed an IC50 in experiment [1] of under 0.05 µM. With `CS(=O)(=O)c1ccc(OCC2CC(F)(F)C2)c2c1[C@H](O)C(F)(F)[C@@H]2F` [Compound 287], the IC50 in experiment [1] was under 0.05 µM.

What is called IC50 is the point on the concentration scale where inhibition reaches its midpoint. Low readings indicate higher potency, high ones lower potency. In general, EC50 refers to the midpoint of the concentration-response curve.
